Measured values from US6607893B2, “Diacylglycerol acyltransferase (DGAT) assay” (Warner-Lambert Company, priority 2000, dated 2003).
Each block holds one molecule with its values, some of them ahead of it.

What was measured:
[1] = tested on: diacylglycerol acyltransferase (DGAT); assay: DGAT enzyme assay, rat liver microsomes, [14C]triglyceride by TLC or 1-step extraction; conditions: for Production of [14C]TAG: 0.8% solvent in reaction
Protocol: Rats were euthanized using CO2 affixation; their livers were immediately removed and placed in ice-cold microsome buffer (MC buffer) consisting of 125 mM sucrose, 3.0 mM imidazole, pH 7.4. Livers were cut into approximately 10 pieces, placed into 20 mL of ice cold MC buffer per liver and homogenized on ice in a glass Dounce power homogenizer using 10 up-and-down strokes. Homogenates were centrifuged at 1700 rpm in a Beckman JA-14 rotor for 10 minutes at 4° C. The supernatant was removed and placed on ice. The pellet was resuspended in 4.0 mL MC buffer per liver, rehomogenized as described above, and centrifuged at 1700 rpm in a Beckman JA-14 rotor for 10 minutes at 4° C. This supernatant was combined with the previous supernatant and centrifuged at 13,000 rpm in a Beckman JA-14 rotor for 20 minutes at 4° C. The supernatant was transferred to new tubes on ice, and the pellet was discarded. The supernate was centrifuged at 35,000 rpm in a Beckman Ti-70 rotor for 60 minutes at 4° C., and the resulting pellet, containing microsomal membranes, was resuspended in ice cold MC buffer using 17 strokes of a glass Dounce power homogenizer. Microsomal protein concentrations were determined by the Dc Protein Assay, and BSA was used to generate the standard curve. Microsomes were diluted to final protein concentration of 10 to 20 mg/mL. Microsomes were aliquoted into 1.0-mL tubes and stored in a liquid N2 cryofreezer.
DGAT Assay Buffer (DAB): 0.25 M sucrose, 1.0 mM EDTA, pH 8.0, 150 mM Tris-HCl, pH 7.4, and 1.25 mg/mL fatty acid free BSA.
Compounds were dissolved in DMSO and diluted to make 10× with DAB (10×compound) and kept at room temperature until the assay was performed.
Frozen aliquots of microsomes (10-20 mg/mL total protein) were thawed on ice and diluted to make a 5× working stock at the indicated concentrations with MC buffer and stored on ice until use.
The DGAT assay reaction was performed as follows: 5 μL of 10× compound was added to Perkin Elmer thin-walled reaction tubes followed by 35 μL of DGAT substrate mixture and vortexed. The reaction was started by the addition of 10 μL of the diluted 5× microsomes, vortexed, and incubated in a Perkin Elmer 9600 thermocycler for the indicated times and temperatures.
Reactions were stopped by the addition of 10 μL of 0.75N HCl. Samples were then spotted onto TLC plates and dried in a gravity convection oven at 70° C. for 30 minutes. Plates were developed in a 27×7.5×26 cm TLC chamber for 60 minutes at room temperature in 102 mL of isooctane:ethyl ether:acetic acid (75:25:2) for triglyceride determination. TLC plates were removed from the chamber, dried in a gravity convection oven at 70° C. for 30 minutes, wrapped in cellophane, and exposed to phosphorimager plates overnight. Phosphorimager plates were scanned on a phosphorimager and images were analyzed using ImageQuant software. A [^14C]glycerol trioleate standard was titrated onto TLC plates for mass determinations. All statistics were performed using Microsoft Excel's analysis software using a two-tailed t-test for means.
Reactions were stopped by the addition of 150 μL of AESSM followed by the addition of 300 μL of n-heptane. The mixture is pipetted 5× to mix and allowed to separate for 5 minutes at room temperature. The entire top phase, n-heptane phase, is removed to new tubes and spotted onto silica TLC plates and processed as described above (see TLC method) or placed into 5-mL scintillation vials containing scintillation cocktail and counted.

[2] = molecular target: T1, diacylglycerol acyltransferase (DGAT); assay: 96-well DGAT mass screen assay; assay type: biochemical, rat; conditions: 22° C., 60 minutes
T1 construct: IC50, DGAT activity; other: Group 1 rat liver microsome preparation; 1-Step/Scintillation; 37° C., 5 minutes; 1-Step/TLC; TLC; other: Group 2 rat liver microsome preparation; 1-Step/Scintillation
Protocol: Plates are loaded onto the robot carousel. […] The robot arm transfers the plate to multidrop 2 for the addition of 20 μL of diluted microsomes and shaken for 1.0 minute at room temperature. The robot arm transfers the plate back to the carousel where it incubates for 1.0 hour at room temperature. The robot arm transfers the plate to multidrop 3 for the addition of 150 μL of AESSM. The robot arm transfers the plate to the multimek to begin the extraction. The reaction volume is transferred to a 96-[…] polypropylene extraction plate on the multimek. The tips are washed 3×100 μL of DI H2O in a reagent reservoir with a continuous flow of DI H2O. The multimek then washes out the 96-well reaction plate with 3×100 μL of n-heptane and transfers the volume to the extraction plate. The multimek mixes the volume in the extraction plate 6×100 μL, and the plate sits for 10 seconds. The tips are washed 3×100 μL of DI H2O in a continuous flow reagent reservoir. One hundred microliters of the top n-heptane phase is transferred to a Flash plate. The robot arm transfers the Flash plate to a carousel fitted with a fume hood, which allows the n-heptane to evaporate for a minimum of 6 hours. The plates are transferred to a plate sealer to be sealed, transferred to the top count scintillation counter, and counted for 1.0 minute. Data are collected and reported to the Trillium based compound management system.

- Production of [14C]TAG [1]: 20±0.02 pmoles [14C]TAG/mg microbe pro
Compound: CCCCCCCC/C=C\CCCCCCCC(=O)OCCOCC(OCCO)C1OCC(OCCO)C1OCCO (stereo not drawn) [Tween 80]

- DMSO concentration at which DGAT assay showed significant changes ([1]; 37° C. and 22° C., p<0.05): 4.5%
Compound: C[S+](C)[O-] [DMSO]
- effect on DGAT activity ([1]; 37° C. and 22° C.): decreases DGAT activity in a linear manner

- IC50 ([2]; manually extracted samples): 1700 nM
- IC50 ([2]; plate 1, 96-well mass screen extraction): 1500 nM
- IC50 ([2]; plate 2, 96-well mass screen extraction): 1270 nM
- IC50 ([1]; read-out: IC50, DGAT activity, Group 1 rat liver microsome preparation, 1-Step/Scintillation, 37° C., 5 minutes): 1660 nM
- IC50 ([1]; read-out: IC50, DGAT activity, Group 1 rat liver microsome preparation, 1-Step/TLC, 37° C., 5 minutes): 950 nM
- IC50 ([1]; read-out: IC50, DGAT activity, Group 1 rat liver microsome preparation, TLC, 37° C., 5 minutes): 1070 nM
- IC50 ([1]; read-out: IC50, DGAT activity, Group 2 rat liver microsome preparation, 1-Step/Scintillation, 37° C., 5 minutes): 1120 nM
- IC50 ([1]; read-out: IC50, DGAT activity, Group 2 rat liver microsome preparation, 1-Step/TLC, 37° C., 5 minutes): 1140 nM
- IC50 ([1]; read-out: IC50, DGAT activity, Group 2 rat liver microsome preparation, TLC, 37° C., 5 minutes): 1520 nM
- IC50 ([1]; read-out: IC50, DGAT activity, Group 3 rat liver microsome preparation, 1-Step/Scintillation, 37° C., 5 minutes): 2050 nM
- IC50 ([1]; read-out: IC50, DGAT activity, Group 3 rat liver microsome preparation, 1-Step/TLC, 37° C., 5 minutes): 2300 nM
- IC50 ([1]; read-out: IC50, DGAT activity, Group 3 rat liver microsome preparation, TLC, 37° C., 5 minutes): 1740 nM
- IC50 ([1]; read-out: IC50, DGAT activity, Group 4 rat liver microsome preparation, 1-Step/Scintillation, 37° C., 5 minutes): 1100 nM
- IC50 ([1]; read-out: IC50, DGAT activity, Group 4 rat liver microsome preparation, 1-Step/TLC, 37° C., 5 minutes): 730 nM
- IC50 ([1]; read-out: IC50, DGAT activity, Group 4 rat liver microsome preparation, TLC, 37° C., 5 minutes): 910 nM
- IC50 ([1]; read-out: IC50, DGAT inhibition, 0.8% ethanol and TLC): 2600 nM
- IC50 ([1]; read-out: IC50, DGAT inhibition, 0.8% ethanol extracted (1-step) and run on TLC): 2400 nM
- IC50 ([1]; read-out: IC50, DGAT inhibition, […] acetone:chloroform (8:2) and TLC): 2000 nM
- IC50 ([1]; read-out: IC50, DGAT inhibition, […] acetone:chloroform (8:2) extracted (1-step) and run on TLC): 2500 nM
Compound: Cc1ccc2c(c1)Oc1ccc(NC(=O)c3ccc(O)cc3)cc1C(=O)N2C [N-(7,10-dimethyl-11-oxo-10,11-dihydro-dibenzo[b,f][1,4]oxazepin-2-yl)-4-hydroxy-benzamide]

Second part, the molecule before the results:

Compound: ClC(Cl)Cl [Chloroform, chloroform]
- DGAT activity, % of control ([1]; 0.35% chloroform): 955%

Compound: CCO [95% EtOH, ethanol]
- DGAT activity increase above control ([1]; 0.5% ethanol): 121%
- Production of [14C]TAG [1]: 104±0.4 pmoles [14C]TAG/mg microbe pro
- DGAT activity increase above controls ([1]; 4.0% ethanol): 180%

Compound: CC(C)=O [Acetone, acetone]
- DGAT activity increase above controls ([1]; 10.0% acetone): 394%
